Laboratory results as given in patent US8211483B2, “Composition comprising starch or dietary fiber from gramineae plant for prevention and treatment of ischemic diseases and degenerative brain disease” (Hypoxi Co., Ltd., priority 2007, dated 2012).

Assays:
[1] = system: SH-SY5Y cells; assay: MTT assay, beta-amyloid-induced cytotoxicity in SH-SY5Y cells; assay type: cell-based, human; details: 15 microM beta-amyloid (alone 60.4%), p<0.05, FIG. 3e; for viability at 250 µg/mL: Homo sapiens, 250 microgram/ml, read-out: cell viability
Protocol: To identify the neuroprotective effect of inventive crude extract, starch and total dietary fiber on the cytotoxicity induced by beta-amyloid, which is regarded as one of the main causes of Alzheimer's disease, the following MTT assay was performed by the procedure disclosed in the literature (Hoffman R. M., Cell Biology (Celis J E (Ed.), Vol. 1, pp 369-370, Academic Press, New York, 1994) with minor modification.
SH-SY5Y cells (human neuroblastoma cell line, ATCC CRL-2266, 4×10^4 cells/300 microliter/well) were seeded onto 48 well plates and incubated in Dulbecco's modified Eagle Medium/F12 90% medium (Invitrogen, USA) supplemented with penicillin G sodium (100 Units/L, Invitrogen, USA), streptomycin sulfate (100 mg/L, Invitrogen, USA) and 10% (w/v) fetal bovine serum (Invitrogen, USA); incubated at 37° C. in 5% CO2-95% air incubator for 48 hours. After changing the media, the cells were treated with beta-amyloid to the final concentrations of 0, 2.5, 7.5 and 25 microM for 24 hours in the absence (designated as Aβ25-35 alone group hereinafter) or presence with inventive starch isolated from Triticum aestivum L. (final concentration: 125 microgram/ml; designated as A25-35+SW group hereinafter) or soluble starch (final concentration: 125 microgram/ml; designated as A25-35+SS group hereinafter) which were made from 50 microgram/ml stock solutions in DMSO (See FIGS. 3a & 3b). After incubation, cells were treated with MTT solution (final concentration of 1 mg/ml) for 2 hours. The dark blue formazan in viable cells was dissolved in DMSO and absorbance at 540 nm was measured by a microplate reader (FLUOstar OPTIMA, BMG LABTECH, GERMANY).
Based on the above-mentioned result, to further examine the protective effects of the crude extract of Triticum aestivum L. or starches isolated from Gramnieae plants against the beta-amyloid-induced cytotoxicity, the concentration of beta-amyloid was fixed to 25 microM. The crude extract of Triticum aestivum L. (HY6228, shown as HY in FIG. 3c; 250 microgram/ml) and starches isolated from Gramnieae plants (SS, SC, SR and SW; 125 microgram/ml) were added thereto to incubation (See FIG. 3c). We also have examined the cell viability improving effect of total dietary fiber (TDF; 500, 1000 microgram/ml) in the presence of 10 microM of beta-amyloid (See FIG. 3d).
In addition, arabinoxylan (AX; 500 microgram/ml), arabinose (Ara; 250 microgram/ml), xylose (Xyl; 250 microgram/ml) and beta-glucan (b-glu; 20 microgram/ml) were added to the media in the presence of 15 microM beta-amyloid (See FIG. 3e).

[2] = system: myocardial infarction-induced rat model; assay: Myocardial infarction-induced rat model (LAD ischemia-reperfusion), oral administration; assay type: in vivo; details: for size of infarcted area reduced by: 10 mg/kg/day oral, vs control 50.6%, p<0.05, FIG. 5c; for IA (% AAR): 10 mg/kg/day with food from three days before ischemia, control 50.6%, FIG. 5c
Protocol: The therapeutic efficacy of inventive starch and total dietary fiber on myocardial infarction was measured in myocardial infarction-induced rat model, using experiment rats prepared in Reference Example 1, in accordance with the procedure disclosed in the literature (Haisong J et al., Circulation, 97, pp 892-899, 1998), with minor modification.
SD rats prepared in Reference Example 1 were anesthetized with 10 mg/kg ketamine (Yuhan Corp., KOREA) and 5 mg/kg xylazine (Sigma, USA) and intubated endotracheally. The rats were connected to a respirator through a tracheotomy, and the heart was rapidly exteriorized through a left thoracotomy and pericardial incision. The upper region of left coronary artery (LAD) was ligated by passing a 5-0 prolene thread under LAD and tightening polyethylene tubing 50 (PE 50), resulting in ischemia. After 30 min of ischemia, 3 hours of reperfusion followed, after the tightened PE 50 was loosened. After the ischemia-reperfusion, the PE 50 was tightened again to induce ischemia, and then 2 ml of 1% Evans blue dye solution was infused intravenously to circulate whole body. Then the heart was isolated, cut into the width of 2-3 mm after the right atrium and right ventricle of the heart were removed. Then the stained (LV-AAR) and unstained area (AAR) of cross sectioned tissue was measured by using image analysis system (Quantity One 4.2, Bio-Rad, USA) to calculate the area at risk (AAR/LV, %). Then, the tissue was stained with 1% TTC (2,3,5-triphenyltetrazolium chloride, Sigma, USA) at 37° C. for 15 mins, fixed with 10% formalin solution. The infarcted area (IA/LV, %) was determined by measuring necrotic white area (IA) and total left ventricle area (LV). The ratio of IA to AAR of test samples and control group was compared to test efficacy.
The inventive starch, total dietary fiber, and representative components of the fiber mixed with food were administered orally, and the size of infarcted area was measured. To determine the proper dose with safety and maximum efficacy at the same time, the minimum dose calculated from the result obtained in Experimental Example 1 was set as a starting point, and the dose was increased according to two-fold increasing method, i.e., 100, 200 and 400 mg/kg.
Three days before the induction of ischemia, 400 mg/kg/day of HY6228 or inventive starch, or 10 mg/kg/day of inventive total dietary fiber, or 10 mg/kg/day of its components, such as arabinoxylan, beta-glucan, arabinose and xylose, was fed with 20 g of food with free access. After induction of myocardial infarction with 3 hours of reperfusion, the infarcted area was measured, the value of IA (% AAR) was calculated, and then efficacy of the inventive starch and total dietary fiber was compared with each other.

[3] = system: vascular dementia-induced rat model; assay: Vascular dementia-induced rat model (BCCAO), water-maze test; assay type: in vivo; details: 50 mg/kg fed for 1 week, FIG. 8b, 8c
Protocol: The therapeutic efficacy of inventive starch and total dietary fiber of the present invention on vascular dementia was measured in vascular dementia-induced rat model, using experiment rats prepared in Reference Example 1, in accordance with the procedure disclosed in the literature (Cho K O et al., J. Neurosci. Res., 83, pp 285-291, 2006), with minor modification.
The SD rats prepared in Reference Example 1 were anesthetized by inhalation using enflurane (Choongwae Pharm. Corp., KOREA). Two common carotid arteries were exposed by surgery and tied with thread using BCCAO (bilateral common carotid artery occlusion) method to reduce the blood flow rate into brain for 4 weeks. And then water-maze test disclosed in Experimental Example 6 was performed for 5 days.
7 days after the two common carotid arteries were tied, the rats were started to be fed with HY6228 (200 mg/kg), inventive starch (SW; 200 mg/kg), TDF (50 mg/kg) and arabinoxlyan (50 mg/kg) therewith for 1 week, for which the mean escape latency was measured.

Molecule: O=C[C@@H](O)[C@H](O)[C@H](O)CO [arabinose]
- viability at 250 µg/mL [1]: 71.1%
- size of infarcted area reduced by [2]: 14.2%
- IA (% AAR) [2]: 43.4%

Molecule: O=C[C@H](O)[C@@H](O)[C@H](O)CO [xylose]
- viability at 250 µg/mL [1]: 72.1%
- size of infarcted area reduced by [2]: 16.8%
- IA (% AAR) [2]: 42.1%

Molecule: beta-glucan
- cell viability ([1]; 20 microgram/ml): 70%
- size of infarcted area reduced by [2]: 13.4%
- IA (% AAR) [2]: 43.8%

Molecule: arabinoxylan
- mean escape latency [3]: reduced the mean escape latency
- cell viability ([1]; 500 microgram/ml): 75.5%
- size of infarcted area reduced by [2]: 16.4%
- IA (% AAR) [2]: 42.3%
